# Measured values: patent US20250382344A1, “Soluble GLP1/GIP/NPY2 Receptor Triple Agonists” (Boehringer Ingelheim International GmH, priority 2024, published 2025)
# Where two headings read alike, the source gives them in different places.
# Legend:
# hGIPR = target: T1, hGIPR (Homo sapiens, UniProt P48546); experiment: hGIPR CreLuc assay in 0.5% and 100% plasma (CHO CRE-luciferase reporter cells); assay type: cell-based
# T1 construct: expressed in transfected cells; host or cells: CHO CRE-luciferase reporter cells
# T1 sequence (P48546 22-466): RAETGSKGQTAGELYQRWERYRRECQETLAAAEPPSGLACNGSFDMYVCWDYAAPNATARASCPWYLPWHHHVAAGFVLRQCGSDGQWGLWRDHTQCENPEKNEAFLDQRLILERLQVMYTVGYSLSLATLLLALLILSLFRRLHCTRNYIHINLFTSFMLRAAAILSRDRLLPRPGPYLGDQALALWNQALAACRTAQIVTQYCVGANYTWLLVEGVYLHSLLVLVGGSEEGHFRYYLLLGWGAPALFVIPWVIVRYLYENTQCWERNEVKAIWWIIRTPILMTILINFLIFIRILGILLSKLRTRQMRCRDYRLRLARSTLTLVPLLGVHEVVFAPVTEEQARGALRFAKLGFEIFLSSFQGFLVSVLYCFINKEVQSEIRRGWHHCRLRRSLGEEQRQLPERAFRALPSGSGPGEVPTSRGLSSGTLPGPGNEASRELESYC
# hGLP1R = target: T2, hGLP1R (Homo sapiens, UniProt P43220); experiment: hGLP1R CreLuc assay in 0.5% and 100% plasma (HEK-293 CRE-luciferase reporter cells); assay type: cell-based; conditions: HEK-293 reporter cells
# T2 construct: expressed in transfected cells; host or cells: HEK-293 CRE-luciferase reporter cells
# Text: CHO and HEK-293 recombinant cell lines express a luciferase reporter gene under control of the CAMP responsive element (CRE). As a second recombinant protein the GLP-1 and NPY2 receptors were expressed in the reporter gene HEK cells, and the GIP receptor was expressed in the reporter gene CHO cells, respectively. Stimulation of these recombinant cells with an agonist leads to an increase of intracellular CAMP levels. In the presence of CAMP, the transcription factor CRE binding protein (CREB) binds to the CRE and to the CREB binding protein (CBP), which leads to transcription of the luciferase reporter gene. Peptides upon serial-dilution in 100% DMSO were transferred into 384-well assay plates with 5 μl pre-dispensed assay buffer (1×HBSS, 20 mM HEPES, pH7.4 supplemented with 0.5% human plasma) using acoustic dispensing on a Labcyte ECHO. Cryo-preserved transgenic reporter gene cells were thawed in assay buffer. 20 μl (10.000 cells/well) were added to the plate with the peptides and incubated for 4 hours at 37° C. in a humidified incubator. Following incubation, assay plates are equilibrated to room temperature, followed by addition of 25 μl of Bright-Glo™ Luciferase reagent, incubation at room temperature for 10 minutes and analysis of luminescence (Envision Reader). […] EC50 values were calculated by non-linear regression using sigmoid concentration-response with variable slope.
# The same assays were run in the presence of 100% plasma with no additional buffer constituents.
# [1] = Solubility in 0.1 M phosphate buffer at pH 7; assay type: physicochemical; conditions: 0.1 M phosphate buffer at pH 7, 10 mg/mL final peptide concentration, shaking 2 hours at room temperature, peptides as TFA-salts; measured sample pH 6.5-7.0
# [2] = 0.5% human plasma, read-out: hGIPR 0.5% hP
# [3] = 0.5% human plasma, read-out: hGLP1R 0.5% hP
# T2 sequence (P43220 24-463): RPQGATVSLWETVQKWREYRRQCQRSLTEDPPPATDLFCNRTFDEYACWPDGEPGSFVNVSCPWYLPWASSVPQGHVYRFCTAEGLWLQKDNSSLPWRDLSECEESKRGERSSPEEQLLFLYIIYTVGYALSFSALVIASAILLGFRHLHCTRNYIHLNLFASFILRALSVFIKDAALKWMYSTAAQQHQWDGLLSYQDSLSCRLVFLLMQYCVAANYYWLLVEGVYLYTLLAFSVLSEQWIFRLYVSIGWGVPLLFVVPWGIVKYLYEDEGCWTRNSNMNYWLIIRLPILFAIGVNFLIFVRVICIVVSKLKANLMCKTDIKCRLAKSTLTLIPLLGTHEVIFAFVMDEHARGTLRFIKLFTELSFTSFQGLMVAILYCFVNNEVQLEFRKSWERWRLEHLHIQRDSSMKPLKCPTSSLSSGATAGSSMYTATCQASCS
EC50 (hGIPR; [2]) [nM],EC50 (hGLP1R; [3]) [nM],SMILES,solubility at 2 h [1] [µg/mL],other results
,,"CC[C@H](C)[C@H](NC(=O)[C@H](Cc1ccccc1)NC(=O)[C@H](C)NC(=O)C(C)(C)NC(=O)[C@H](CCC(N)=O)NC(=O)[C@H](C)NC(=O)[C@H](CCC(N)=O)NC(=O)[C@H](CCCCN)NC(=O)[C@H](CCC(=O)O)NC(=O)[C@H](CC(C)C)NC(=O)C(C)(C)NC(=O)[C@@H](NC(=O)[C@H](CO)NC(=O)[C@H](CC(C)C)NC(=O)[C@H](CC(=O)O)NC(=O)[C@H](CO)NC(=O)[C@@H](NC(=O)[C@H](Cc1ccccc1)NC(=O)[C@@H](NC(=O)CNC(=O)[C@H](CCC(=O)O)NC(=O)C(C)(C)NC(=O)[C@@H](N)Cc1ccc(O)cc1)[C@@H](C)O)[C@@H](C)O)[C@@H](C)CC)C(=O)N[C@@H](CCCNC(=N)N)C(=O)N[C@@H](Cc1c[nH]cn1)C(=O)N[C@@H](CC(C)C)C(=O)N[C@H](C(=O)N[C@@H](CC(N)=O)C(=O)N[C@@H](CCCCNC(=O)[C@@H](N)CCCCNC(=O)CC[C@H](NC(=O)CC[C@H](NC(=O)CC[C@H](NC(=O)CC[C@H](NC(=O)CC[C@H](NC(=O)CC[C@H](NC(=O)CCCCCCCCCCCCCCCCCCC(=O)O)C(=O)O)C(=O)O)C(=O)O)C(=O)O)C(=O)O)C(=O)O)C(=O)NC(C)(C)C(=O)N[C@H](C(=O)N[C@@H](CCCNC(=N)N)C(=O)N[C@@H](CCC(N)=O)C(=O)N[C@@H](CCCNC(=N)N)C(=O)N[C@@H](Cc1ccc(O)cc1)C(N)=O)[C@@H](C)O)[C@@H](C)CC [Compound 21, Y-Aib-E-G-T-F-T-S-D-L-S-I-Aib-L-E-K-Q-A-Q-Aib-A-F-I-R-H-L-I-N-K(1,3)-Aib-T-R-Q-R-Y-NH2.C20DA-gGlu-gGlu-gGlu-gGlu-gGlu-gGlu-eLys(1,2)]",,"EC50 (hGIPR; hGIPR 0.5% hP (nM), 0.5% human plasma): 0.2 nM; EC50 (hGIPR; hGIPR 100% hP (nM), 100% human plasma): 5.6 nM; EC50 (hGLP1R; hGLP1R 100% hP (nM), 100% human plasma): 13.9 nM"
0.7,0.2,"CC[C@H](C)[C@H](NC(=O)[C@H](CO)NC(=O)[C@H](Cc1ccc(O)cc1)NC(=O)[C@H](CC(=O)O)NC(=O)[C@H](CO)NC(=O)[C@@H](NC(=O)[C@H](Cc1ccccc1)NC(=O)[C@@H](NC(=O)CNC(=O)[C@H](CCC(=O)O)NC(=O)C(C)(C)NC(=O)[C@@H](N)Cc1ccc(O)cc1)[C@@H](C)O)[C@@H](C)O)C(=O)NC(C)(C)C(=O)N[C@@H](CC(C)C)C(=O)N[C@@H](CC(=O)O)C(=O)N[C@@H](CCCCN)C(=O)N[C@@H](CCC(N)=O)C(=O)N[C@@H](C)C(=O)N[C@@H](CCC(N)=O)C(=O)NC(C)(C)C(=O)N[C@@H](C)C(=O)N[C@@H](Cc1ccccc1)C(=O)N[C@H](C(=O)N[C@@H](CCCNC(=N)N)C(=O)N[C@@H](Cc1c[nH]cn1)C(=O)N[C@@H](CC(C)C)C(=O)N[C@@H](CC(C)C)C(=O)N[C@@H](CC(N)=O)C(=O)N[C@@H](CCCCNC(=O)[C@@H](N)CCCCNC(=O)CC[C@H](NC(=O)CC[C@H](NC(=O)CC[C@H](NC(=O)CC[C@H](NC(=O)CC[C@H](NC(=O)CC[C@H](NC(=O)CCCCCCCCCCCCCCCCC(=O)O)C(=O)O)C(=O)O)C(=O)O)C(=O)O)C(=O)O)C(=O)O)C(=O)NC(C)(C)C(=O)N[C@H](C(=O)N[C@@H](CCCNC(=N)N)C(=O)N[C@@H](CCC(N)=O)C(=O)N[C@@H](CCCNC(=N)N)C(=O)N[C@@H](Cc1ccc(O)cc1)C(N)=O)[C@@H](C)O)C(C)C [Compound 173, Y-Aib-E-G-T-F-T-S-D-Y-S-I-Aib-L-D-K-Q-A-Q-Aib-A-F-V-R-H-L-L-N-K(1,3)-Aib-T-R-Q-R-Y-NH2.C18DA-gGlu-gGlu-gGlu-gGlu-gGlu-gGlu-eLys(1,2)]",,
,,"CC[C@H](C)[C@H](NC(=O)[C@H](CO)NC(=O)[C@H](CC(C)C)NC(=O)[C@H](CC(=O)O)NC(=O)[C@H](CO)NC(=O)[C@@H](NC(=O)[C@H](Cc1ccccc1)NC(=O)[C@@H](NC(=O)CNC(=O)[C@H](CCC(=O)O)NC(=O)C(C)(C)NC(=O)[C@@H](N)Cc1ccc(O)cc1)[C@@H](C)O)[C@@H](C)O)C(=O)NC(C)(C)C(=O)N[C@@H](CC(C)C)C(=O)N[C@@H](CCC(=O)O)C(=O)N[C@@H](CCCCN)C(=O)N[C@@H](CCC(N)=O)C(=O)N[C@@H](C)C(=O)N[C@@H](CCC(N)=O)C(=O)NC(C)(C)C(=O)N[C@@H](C)C(=O)N[C@@H](Cc1ccccc1)C(=O)N[C@H](C(=O)N[C@@H](CCCNC(=N)N)C(=O)N[C@@H](Cc1c[nH]cn1)C(=O)N[C@@H](CC(C)C)C(=O)N[C@@H](CC(C)C)C(=O)N[C@@H](CC(N)=O)C(=O)N[C@@H](CCCCNC(=O)[C@@H](N)CCCCNC(=O)CC[C@H](NC(=O)CC[C@H](NC(=O)CC[C@H](NC(=O)CC[C@H](NC(=O)CC[C@H](NC(=O)CC[C@H](NC(=O)CCCCCCCCCCCCCCCCCCC(=O)O)C(=O)O)C(=O)O)C(=O)O)C(=O)O)C(=O)O)C(=O)O)C(=O)NC(C)(C)C(=O)N[C@H](C(=O)N[C@@H](CCCNC(=N)N)C(=O)N[C@@H](CCC(N)=O)C(=O)N[C@@H](CCCNC(=N)N)C(=O)N[C@@H](Cc1ccc(O)cc1)C(N)=O)[C@@H](C)O)C(C)C [Compound 115, Y-Aib-E-G-T-F-T-S-D-L-S-I-Aib-L-E-K-Q-A-Q-Aib-A-F-V-R-H-L-L-N-K(1,3)-Aib-T-R-Q-R-Y-NH2.C20DA-gGlu-gGlu-gGlu-gGlu-gGlu-gGlu-eLys(1,2)]",8200,"EC50 (hGLP1R; hGLP1R 0.5% hP (nM), 0.5% human plasma): 7 nM"
0.5,1.8,"CC[C@H](C)[C@H](NC(=O)[C@H](CC(C)C)NC(=O)[C@H](Cc1c[nH]cn1)NC(=O)[C@H](CCCNC(=N)N)NC(=O)[C@@H](NC(=O)[C@H](Cc1ccccc1)NC(=O)[C@H](C)NC(=O)C(C)(C)NC(=O)[C@H](CCC(N)=O)NC(=O)[C@H](C)NC(=O)[C@H](CCC(N)=O)NC(=O)[C@H](CCCCN)NC(=O)[C@H](CCC(=O)O)NC(=O)[C@H](CC(C)C)NC(=O)C(C)(C)NC(=O)[C@@H](NC(=O)[C@H](CO)NC(=O)[C@H](Cc1ccc(O)cc1)NC(=O)[C@H](CC(=O)O)NC(=O)[C@H](CO)NC(=O)[C@@H](NC(=O)[C@H](Cc1ccccc1)NC(=O)[C@@H](NC(=O)CNC(=O)[C@H](CCC(=O)O)NC(=O)C(C)(C)NC(=O)[C@@H](N)Cc1ccc(O)cc1)[C@@H](C)O)[C@@H](C)O)[C@@H](C)CC)C(C)C)C(=O)N[C@@H](CC(N)=O)C(=O)N[C@@H](CCCCNC(=O)CC[C@H](NC(=O)CC[C@H](NC(=O)CC[C@H](NC(=O)CC[C@H](NC(=O)CC[C@H](NC(=O)CC[C@H](NC(=O)CCCCCCCCCCCCCCCCCCC(=O)O)C(=O)O)C(=O)O)C(=O)O)C(=O)O)C(=O)O)C(=O)O)C(=O)NC(C)(C)C(=O)N[C@H](C(=O)N[C@@H](CCCNC(=N)N)C(=O)N(C)[C@@H](CCC(N)=O)C(=O)N[C@@H](CCCNC(=N)N)C(=O)N[C@@H](Cc1ccc(O)cc1)C(N)=O)[C@@H](C)O [Compound 114, Y-Aib-E-G-T-F-T-S-D-Y-S-I-Aib-L-E-K-Q-A-Q-Aib-A-F-V-R-H-L-I-N-K(1,3)-Aib-T-R-NMeQ-R-Y-NH2.C20DA-gGlu-gGlu-gGlu-gGlu-gGlu-gGlu(1,2)]",,
,3.4,"CC[C@H](C)[C@H](NC(=O)[C@H](CC(C)C)NC(=O)[C@H](Cc1c[nH]cn1)NC(=O)[C@H](CCCNC(=N)N)NC(=O)[C@@H](NC(=O)[C@H](Cc1ccccc1)NC(=O)[C@H](C)NC(=O)C(C)(C)NC(=O)[C@H](CCC(N)=O)NC(=O)[C@H](C)NC(=O)[C@H](CCC(N)=O)NC(=O)[C@H](CCCCN)NC(=O)[C@H](CCC(=O)O)NC(=O)[C@H](CC(C)C)NC(=O)C(C)(C)NC(=O)[C@@H](NC(=O)[C@H](CO)NC(=O)[C@H](Cc1ccc(O)cc1)NC(=O)[C@H](CC(=O)O)NC(=O)[C@H](CO)NC(=O)[C@@H](NC(=O)[C@H](Cc1ccccc1)NC(=O)[C@H](CCC(=O)O)NC(=O)CNC(=O)[C@H](CCC(=O)O)NC(=O)C(C)(C)NC(=O)[C@@H](N)Cc1ccc(O)cc1)[C@@H](C)O)[C@@H](C)CC)C(C)C)C(=O)N[C@@H](CC(N)=O)C(=O)N[C@@H](CCCCNC(=O)[C@@H](N)CCCCNC(=O)CC[C@H](NC(=O)CC[C@H](NC(=O)CC[C@H](NC(=O)CC[C@H](NC(=O)CC[C@H](NC(=O)CC[C@H](NC(=O)CCCCCCCCCCCCCCCCC(=O)O)C(=O)O)C(=O)O)C(=O)O)C(=O)O)C(=O)O)C(=O)O)C(=O)NC(C)(C)C(=O)N[C@H](C(=O)N[C@@H](CCCNC(=N)N)C(=O)N[C@@H](CCC(N)=O)C(=O)N[C@@H](CCCNC(=N)N)C(=O)N[C@@H](Cc1ccc(O)cc1)C(N)=O)[C@@H](C)O [Compound 54, Y-Aib-E-G-E-F-T-S-D-Y-S-I-Aib-L-E-K-Q-A-Q-Aib-A-F-V-R-H-L-I-N-K(1,3)-Aib-T-R-Q-R-Y-NH2.C18DA-gGlu-gGlu-gGlu-gGlu-gGlu-gGlu-eLys(1,2)]",9600,
